Results taken from publication PMC7395176, “Retromer stabilization results in neuroprotection in a model of Amyotrophic Lateral Sclerosis” (Nature Communications, 2020).

Legend:
[1] = test system: SOD1^G93A-transfected Neuro2a cells; experiment: Golgi morphology (Golgin97) in SOD1G93A-transfected Neuro2a cells; assay type: cell-based; details: 10 µM
Text: The Golgi apparatus is affected in MNs from ALS patients and in cells overexpressing mutant SOD1 forms[35]–[37]. We transiently transfected Neuro2a cells with plasmids encoding SOD1^G93A before treatment with compound 2a. […] We next determined the viability of Neuro2a cells transfected with SOD1^G93A and exposed to compound 2a using a colorimetric assay. Controls cells received LacZ plasmids. […] We observed a slight, but not significant, reduction of cell viability in […] Neuro2a cells (Fig. 3b). […] The increased cell viability provided by compound 2a could result from unknown, nonspecific off-target effects. Therefore, we used plasmids encoding VPS35 to increase/stabilize the retromer complex. […] However, this phenotype was reverted co-transfecting VPS35 and SOD1^G93A plasmids (Fig. 3c).
Golgi morphology was assessed in control or in Neuro2a cells receiving G93A plasmids with or without compound 2a (10 µM) as well as in GFP-transfected cells as additional control. We used Golgin97 immunofluorescence to label trans-Golgi network membranes. We classified Golgi morphology as follow: normal (polarized network), intermediate (partially fragmented) or fragmented (severely fragmented with Golgi stacks dispersed in the cytoplasm throughout). […] Golgi subclasses were expressed as a percent of the total number of Golgi scored for each experimental condition.

SOD1^G93A aggregates = experiment: Treatment of G93A mice from day 83 to day 103: motor performance, SOD1 aggregates (blue-native PAGE); assay type: in vivo; details: 10 mg/kg daily
Text: SOD1 mutations increase its propensity to aggregate in cells. We checked whether compound 2a could reduce the accumulation of SOD1^G93A aggregates in vivo. Starting at postnatal day 83, we injected G93A mice and WT littermates daily with compound 2a. We scored motor performances in vehicle- and compound 2a-treated G93A mice until day 103. […] We resolved SC protein extracts by blue-native polyacrylamide gel electrophoresis, and probing them with anti-SOD1 antibodies we observed high molecular weight smears in G93A mice that were absent in WT litters. The intensity of such high MW entities was lowered in G93A mice treated with compound 2a (Supplementary Fig. 13b, c).
G93A mice and their WT litters were injected daily with vehicle or compound 2a (10 mg/kg, from day 83 to day 103). […] We incubated 250 µL of each extract with 100 mM Iodoacetamide (Sigma–Aldrich). […]
n=4 independent mice/group, data are collected from 1 experiment). […] Dividing black linesmark lanes cropped from the same filter;c, quantifications of the mutant forms of the SOD1 from mice treated with sham or with compound 2a (G93A-v: n=6 independent mice, G93A-2a: n=6 independent mice, data are derived from 2 independent experiments). […]

In the case of `NC(N)=N/N=C/c1cccc(/C=N/N=C(N)N)c1` [compound 2a, phenyl-1,3-bis-guanylhydrazone], the trans-Golgi fragmentation [1] is reported as “significantly reverted this phenotype”, the “motor deficits (latency to fall)” value (SOD1^G93A aggregates) is reported as “general attenuation of motor deficits” and the “intensity of high MW SOD1 entities (blue-native PAGE)” value (SOD1^G93A aggregates; SC extracts) is reported as “lowered”.
